What all share (type): cell-based
The test system of test [1] is TT cells (human medullary thyroid carcinoma cells). Nature of the test: alamarBlue proliferation assay with TT cells. Particulars: for activity at 40 µM: Homo sapiens, 120 h, relative to DMSO basis level 1.0, read-out: weighted arithmetic mean (AVEw) of normalized fluorescence intensity, activity range. Here is the method: The antiproliferative activities of compounds falling under formula I, formula II, formula III, formula IV and formula V were investigated on cells or cell lines originating from a disorder of the myeloid cell compartment, the neuroendocrine system, the cervix, and the mucosal epithelium, as well as from the skin epithelium. To this end, HL-60 cells, TT cells, HeLa cells, CAL-27 cells and human primary epidermal keratinocytes (HPEK) were seeded into 96-well plates suitable for fluorescence assays (CORNING #3598) at following initial cell numbers: 1000 cells per well for HL-60; 9000 cells per well for TT; 2000 cells per well for HeLa, 2000 cells per well for CAL-27, 2000 cells per well for HPEK. The cells were treated with compounds at indicated final concentrations (diluted from the 1000× stock-solutions in DMSO to a final DMSO concentration of 0.1% v/v) or with the empty carrier DMSO at 0.1% v/v as control for 5 days. At day 5 after starting the treatments the cells were subjected to the alamarBlue® Proliferation Assay (Bio-Rad Serotec GmbH, BUF012B) according to the protocol of the manufacturer. The readout was taken with a multi-well plate-reader in the fluorescence mode with applying a filter for excitation at 560 nm (band width 10 nm) and for emission at 590 nm (band width 10 nm). Resveratrol (RES) treatment was included as control for growth inhibition.
The assays were performed in duplicate or more replicates of independent single experiments each containing a six-fold replicate for every condition. For every individual plate, the measured fluorescence intensity values of the conditions with compound treatment were normalized against the corresponding equally weighted arithmetic mean of the fluorescence intensity values of the six DMSO treated control wells in order to obtain the relative values to a baseline level of 1.0. The statistical calculations were performed in analogy to the luciferase assay as described above. To this end, two independent outlier analyses were performed according to the methods by Peirce and Chauvenet (Ross, Journal of Engineering Technology 2003, 1-12). Outliers confirmed by at least one of the methods were excluded from the calculations but not more than one value out of six per compound within a single experiment. The weighted arithmetic mean AVEw for each compound was calculated from the normalized values over all independent replicates of the single experiments comprising the six replicates each. The corresponding standard deviation for the weighted arithmetic mean was calculated according to the method described by Bronstein et al. (Bronstein, Semendjajew, Musiol, Mühlig, Taschenbuch der Mathematik, 5th edition 2001 (German), publisher: Verlag Harri Deutsch, Frankfurt am Main and Thun) and was combined with the Gauß′ error propagation associated with the performed calculation for the normalization. The resulting standard deviation is herein referred to as “combined standard deviation”.
TT cells were cultivated according to the protocol of the provider in F-12K medium (Fisherscientific, #11580556, or ATCC, #ATCC-30-2004) containing 10% fetal bovine serum (Fisherscientific, #15517589).
A compound is considered as a growth inhibitor of TT cells, if—at a reference concentration of 40 μM—the weighted arithmetic mean of the normalized fluorescence intensity values after addition of the corresponding combined standard deviation amounts to 0.9 or lower, in particular to 0.8 or lower, 0.7 or lower, 0.6 or lower, 0.4 or lower, and 0.2 or lower, relative to the overall basis level of 1.0. The overall basis level was calculated as the weighted arithmetic mean of all normalized values from the DMSO control measurements in analogy to the calculations performed for the test-compounds. The corresponding combined standard deviation for the DMSO values amounts to less than 1·10^−2.
In general terms: Resazurin is reduced to fluorescent resorufin, in cell work by metabolically active cells.

The subject of test [2] is CAL-27 cells (human tongue squamous cell carcinoma cells). Nature of the test: alamarBlue proliferation assay with CAL-27 cells. The following applies: for activity at 20 µM / activity at 40 µM: Homo sapiens, 120 h; for activity at 20 µM: relative to DMSO baseline level of 1.0, read-out: AVEw, weighted arithmetic mean of normalized fluorescence intensity values (Activity Range), CAL-27 proliferation; for activity at 40 µM: relative to DMSO basis level 1.0, read-out: weighted arithmetic mean (AVEw) of normalized fluorescence intensity, activity range. Put shortly:
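CAL-27 cells seeded at 2000 per well, exposed to compound in 0.1% DMSO for 5 days, then alamarBlue fluorescence (ex 560/em 590 nm). Values normalized to DMSO wells (1.0) as weighted means with combined standard deviation; growth inhibition judged at 20 μM reference concentration.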

Test [3] deals with HL-60 cells (human acute myeloid leukemia cells). Nature of the test: alamarBlue proliferation assay with HL-60 cells. Particulars: 120 h, 5 days, relative to DMSO baseline level of 1.0, read-out: AVEw, weighted arithmetic mean of normalized fluorescence intensity values (Activity Range), HL-60 proliferation. Put shortly:
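HL-60 cells (1000/well, RPMI 1640 + 10% FBS) exposed to compound in 0.1% DMSO for 5 days, then alamarBlue fluorescence read (ex 560/em 590 nm). Signals normalized to six DMSO wells per plate (baseline 1.0); outliers removed by Peirce/Chauvenet; weighted mean with combined SD; inhibitor criterion judged at 20 μM reference concentration.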

Setting [4] is: control RES at 20 μM, relative to DMSO basis level 1.0.

Structures are written as SMILES.

Turning to `O=C(NO)c1ccc(Oc2ccc(C3CCCCC3)cc2)nc1` [Compound 284, 6-(4-Cyclohexylphenoxy)-N-hydroxynicotinamide], the activity at 40 µM in test [1] lay in the range of 0 to 20%. Also, the activity at 20 µM in test [2] (5 days) and in test [3] was 0 to 20% each time.
In the case of `O=C(NO)c1ccc(Oc2ccc(C3CC4CCC3CC4)cc2)nc1` (stereo not drawn) [Compound 287, 6-(4-((1s,4s)-bicyclo[2.2.2]octan-2-yl)phenoxy)-N-hydroxynicotinamide], the activity at 40 µM was 20 to 40% in test [1] and 0 to 20% in test [2]. Besides, the results for the activity at 20 µM in test [2] (5 days) and in test [3] were 20 to 40% and 0 to 20%, respectively.
Consider `O=C(NO)c1cnc(Oc2ccc(C3CCCCC3)cc2)c(F)c1` [Compound 644, 6-(4-Cyclohexylphenoxy)-5-fluoro-N-hydroxynicotinamide], for which, in test [1], the activity at 40 µM lay within 20 to 40%. Also, the activity at 20 µM in test [2] (5 days) and in test [3] was 0 to 20% in each case.
As for `Oc1ccc(C=Cc2cc(O)cc(O)c2)cc1` [RES, resveratrol, reference compound], the activity at 40 µM in test [1] amounted to 80%; in test [2], 50%. The “weighted arithmetic mean (AVEw) of normalized fluorescence intensity” value in test [1] (setting [4]) and in test [2] (setting [4]) was 0.9 ± 0.0 each time. The “AVEw, weighted arithmetic mean of normalized fluorescence intensity values, CAL-27 proliferation” value in test [2] (40 μM (control RES 40 μM), 5 days, relative to DMSO baseline level of 1.0) stood at 0.4 ± 0.0. Besides, the activity at 20 µM in test [2] (5 days) amounted to 90%; in test [3] it was 40%.
Consider `CCCc1ccc(Oc2ccc(C(=O)NO)cc2)cc1` [Compound 166, N-hydroxy-4-(4-propylphenoxy)benzamide], for which the activity at 40 µM in test [1] was in the range of 20 to 40%; in test [2] it was 0 to 20%. Besides, the activity at 20 µM in test [2] (5 days) fell in the range of 20 to 40%; in test [3] it was 0 to 20%.
In the case of `CCC(C)(C)c1ccc(Oc2ccc(C(=O)NO)cn2)cc1` [Compound 273, N-hydroxy-6-(4-(tert-pentyl)phenoxy)nicotinamide], the activity at 20 µM in test [2] (5 days) and in test [3] was 0 to 20% each time.
As for `CCC(C)(C)c1ccc(Oc2ccc(C(=O)NO)cc2)cc1` [Compound 171, N-hydroxy-4-(4-(tert-pentyl)phenoxy)benzamide], the activity at 40 µM in test [1] lay in the range of 20 to 40%. Moreover, the activity at 20 µM in test [2] (5 days) and in test [3] was 0 to 20% in each case.
As to `CN(C)C(=O)c1ccc(Oc2ccc(C3CCCCC3)cc2)nc1` [Compound 334, 6-(4-cyclohexylphenoxy)-N,N-dimethylnicotinamide], the activity at 40 µM in test [1] and in test [2] was 80 to 90% each time. In addition, the activity at 20 µM in test [3] was 60 to 70%.
With `O=C(NO)c1ccc(Oc2ccc(C34CC5CC(CC(C5)C3)C4)cc2)cc1` [Compound 186, 4-(4-(Adamantan-1-yl)phenoxy)-N-hydroxybenzamide], the activity at 40 µM in test [1] was 20 to 40%. The activity at 20 µM in test [2] (5 days) and in test [3] was 0 to 20% in each case.
As for `CC(C)c1ccc(Oc2ccc(C(=O)NO)cn2)cc1` [Compound 272, N-hydroxy-6-(4-isopropylphenoxy)nicotinamide], the activity at 40 µM in test [1] and in test [2] was 0 to 20% each time. Further, the activity at 20 µM in test [2] (5 days) and in test [3] was 0 to 20% in each case.
On to `O=C(NO)c1ccc(Oc2ccc(C34CC5CC(CC(C5)C3)C4)cc2)c(F)c1` [Compound 544, 4-(4-(Adamantan-1-yl)phenoxy)-3-fluoro-N-hydroxybenzamide], for which, in test [1], the activity at 40 µM fell in the range of 20 to 40%. Also, the activity at 20 µM in test [2] (5 days) and in test [3] was 0 to 20% throughout.
Regarding `NC(=O)c1ccc(Oc2ccc(C3CC4CCC3C4)cc2)cc1` (racemic) [Compound 159, (±)-4-(4-(Bicyclo[2.2.1]heptan-2-yl)phenoxy)benzamide], the activity at 40 µM in test [1] lay in the range of 80 to 90%; in test [2], 60 to 70%. Moreover, the activity at 20 µM in test [3] lay within 40 to 60%.
For the molecule `CNC(=O)c1ccc(Oc2ccc(C(F)(F)F)cc2)nc1` [Compound 300, N-methyl-6-(4-(trifluoromethyl)phenoxy)nicotinamide], the activity at 20 µM in test [2] (5 days) and in test [3] was 80 to 90% each time. Moreover, the activity at 40 µM in test [2] fell in the range of 80 to 90%.
On to `O=C(NO)c1ccc(Oc2ccc(C3CCCCC3)cc2)cc1` [Compound 182, 4-(4-cyclohexylphenoxy)-N-hydroxybenzamide], for which the activity at 40 µM in test [1] was 20 to 40%. Further, the activity at 20 µM lay within 20 to 40% in test [2] (5 days) and 0 to 20% in test [3].
As to `O=C(NO)c1ccc(Oc2ccc(C34CC5CC(CC(C5)C3)C4)cc2)nc1` [Compound 288, 6-(4-((3r,5r,7r)-adamantan-1-yl)phenoxy)-N-hydroxynicotinamide], the activity at 40 µM in test [1] was in the range of 0 to 20%. Besides, the figures for the activity at 20 µM in test [2] (5 days) and in test [3] were 20 to 40% and 0 to 20%, respectively.

Source of the values: patent US12600696B2 (XENIOPRO GMBH, priority 2017, dated 2026).
